In article PMC10033419, “Blocking NS3–NS4B interaction inhibits dengue virus in non-human primates” (Nature, 2023):
Several values for one entry are separate records, joined by “and”; a condition that tells them apart may be missing. Equal entries are not always repeated.

Test system: DENV-2 RL strain
Experiment: In vivo kinetics study, low viral inoculum (10^2 PFU)
[1] = 2 mg/kg/d, day 4 p.i., individual mice
[2] = 2 mg/kg/d, day 5 p.i., individual mice
[3] = 20 mg/kg/d, day 1 p.i., individual mice
[4] = 20 mg/kg/d, day 2 p.i., individual mice
[5] = 20 mg/kg/d, day 3 p.i., individual mice
[6] = 20 mg/kg/d, day 4 p.i., individual mice
[7] = 20 mg/kg/d, day 5 p.i., individual mice
[8] = JNJ-1802 0.2 mg/kg/d, day 5 p.i., individual mice, 0.2 mg/kg/day
[9] = JNJ-1802 0.2 mg/kg/d, day 6 p.i., individual mice, 0.2 mg/kg/day
[10] = JNJ-1802 0.2 mg/kg/d, day 8 p.i., individual mice, 0.2 mg/kg/day
[11] = JNJ-1802 0.2 mg/kg/d, day 11 p.i., individual mice
[12] = JNJ-1802 2 mg/kg/d, day 5 p.i., individual mice
[13] = JNJ-1802 2 mg/kg/d, day 6 p.i., individual mice
[14] = JNJ-1802 2 mg/kg/d, day 8 p.i., individual mice
[15] = JNJ-1802 2 mg/kg/d, day 11 p.i., individual mice, 2 mg/kg/day
[16] = JNJ-1802 20 mg/kg/d, day 5 p.i., individual mice
[17] = JNJ-1802 20 mg/kg/d, day 6 p.i., individual mice
[18] = JNJ-1802 20 mg/kg/d, day 8 p.i., individual mice
[19] = JNJ-1802 20 mg/kg/d, day 11 p.i., individual mice

COc1cc(N[C@H](C(=O)c2c[nH]c3ccc(OC(F)(F)F)cc23)c2ccc(Cl)cc2OC)cc(S(C)(=O)=O)c1 [JNJ-1802]
In vivo kinetics, Copies/ml [1]: 3.93E+02 Copies/ml | In vivo kinetics, Log10 of Copies/ml [1]: 2.5940 Log10 | In vivo kinetics, Mean of Log10 (2 mg/kg/d, day 5 p.i., group mean): 2.59 Log10 | In vivo kinetics, Copies/ml [2]: 3.93E+02 Copies/ml | In vivo kinetics, Log10 of Copies/ml [2]: 2.5940 Log10 | In vivo kinetics, Mean of Log10 (20 mg/kg/d, day 1 p.i., group mean): 2.59 Log10 | In vivo kinetics, Copies/ml [3]: 3.93E+02 Copies/ml | In vivo kinetics, Log10 of Copies/ml [3]: 2.5940 Log10 | In vivo kinetics, Mean of Log10 (20 mg/kg/d, day 2 p.i., group mean): 2.59 Log10 | In vivo kinetics, Copies/ml [4]: 3.93E+02 Copies/ml | In vivo kinetics, Log10 of Copies/ml [4]: 2.5940 Log10 | In vivo kinetics, Mean of Log10 (20 mg/kg/d, day 3 p.i., group mean): 2.75 Log10 | In vivo kinetics, Copies/ml [5]: 3.93E+02 Copies/ml and 6.76E+03 Copies/ml | In vivo kinetics, Log10 of Copies/ml [5]: 2.5940 Log10 and 3.8298 Log10 | In vivo kinetics, Mean of Log10 (20 mg/kg/d, day 4 p.i., group mean): 2.59 Log10 | In vivo kinetics, Copies/ml [6]: 3.93E+02 Copies/ml | In vivo kinetics, Log10 of Copies/ml [6]: 2.5940 Log10 | In vivo kinetics, Mean of Log10 (20 mg/kg/d, day 5 p.i., group mean): 2.76 Log10 | In vivo kinetics, Copies/ml [7]: 3.93E+02 Copies/ml and 7.90E+03 Copies/ml | In vivo kinetics, Log10 of Copies/ml [7]: 2.5940 Log10 and 3.8977 Log10 | effect on body weight (20, 2 or 0.2 mg per kg per day b.i.d., 6 days): did not affect body weight | mean viral load vs vehicle (20 and 2 mg per kg per day b.i.d., on 6 out of 8 days): reduced to undetectable levels | In vivo kinetics - viral RNA, Copies/ml [8]: 4.57E+04 Copies/ml and 9.46E+04 Copies/ml and 4.38E+05 Copies/ml | In vivo kinetics - viral RNA, Log10 [8]: 4.6597 Log10 and 4.9759 Log10 and 5.6413 Log10 | In vivo kinetics - viral RNA, Mean of Log10 (JNJ-1802 0.2 mg/kg/d, day 6 p.i., group mean): 4.69 Log10 | In vivo kinetics - viral RNA, Copies/ml [9]: 4.46E+04 Copies/ml and 2.63E+04 Copies/ml and 2.31E+04 Copies/ml and 1.84E+05 Copies/ml and 8.21E+04 Copies/ml and 8.40E+03 Copies/ml | In vivo kinetics - viral RNA, Log10 [9]: 4.6493 Log10 and 4.4198 Log10 and 4.8549 Log10 and 5.1560 Log10 and 4.3639 Log10 and 5.2645 Log10 and 4.9143 Log10 and 3.9243 Log10 | In vivo kinetics - viral RNA, Mean of Log10 (JNJ-1802 0.2 mg/kg/d, day 8 p.i., group mean): 3.63 Log10 | In vivo kinetics - viral RNA, Copies/ml [10]: 3.93E+02 Copies/ml and 4.25E+05 Copies/ml and 5.92E+05 Copies/ml | In vivo kinetics - viral RNA, Log10 [10]: 2.5940 Log10 and 5.6283 Log10 and 5.7725 Log10 | In vivo kinetics - viral RNA, Mean of Log10 (JNJ-1802 0.2 mg/kg/d, day 11 p.i., group mean): 2.59 Log10 | In vivo kinetics - viral RNA, Copies/ml [11]: 3.93E+02 Copies/ml | In vivo kinetics - viral RNA, Log10 [11]: 2.5940 Log10 | In vivo kinetics - viral RNA, Copies/ml [12]: 3.93E+02 Copies/ml | In vivo kinetics - viral RNA, Log10 [12]: 2.5940 Log10 | In vivo kinetics - viral RNA, Mean of Log10 (JNJ-1802 2 mg/kg/d, day 6 p.i., group mean): 2.59 Log10 | In vivo kinetics - viral RNA, Copies/ml [13]: 3.93E+02 Copies/ml | In vivo kinetics - viral RNA, Log10 [13]: 2.5940 Log10 | In vivo kinetics - viral RNA, Mean of Log10 (JNJ-1802 2 mg/kg/d, day 8 p.i., group mean): 2.59 Log10 | In vivo kinetics - viral RNA, Copies/ml [14]: 3.93E+02 Copies/ml | In vivo kinetics - viral RNA, Log10 [14]: 2.5940 Log10 | In vivo kinetics - viral RNA, Mean of Log10 (JNJ-1802 2 mg/kg/d, day 11 p.i., group mean): 2.74 Log10 | In vivo kinetics - viral RNA, Copies/ml [15]: 3.93E+02 Copies/ml and 3.01E+03 Copies/ml | In vivo kinetics - viral RNA, Log10 [15]: 2.5940 Log10 and 3.4790 Log10 | In vivo kinetics - viral RNA, Copies/ml [16]: 3.93E+02 Copies/ml | In vivo kinetics - viral RNA, Log10 [16]: 2.5940 Log10 | In vivo kinetics - viral RNA, Mean of Log10 (JNJ-1802 20 mg/kg/d, day 6 p.i., group mean): 2.59 Log10 | In vivo kinetics - viral RNA, Copies/ml [17]: 3.93E+02 Copies/ml | In vivo kinetics - viral RNA, Log10 [17]: 2.5940 Log10 | In vivo kinetics - viral RNA, Mean of Log10 (JNJ-1802 20 mg/kg/d, day 8 p.i., group mean): 2.59 Log10 | In vivo kinetics - viral RNA, Copies/ml [18]: 3.93E+02 Copies/ml | In vivo kinetics - viral RNA, Log10 [18]: 2.5940 Log10 | In vivo kinetics - viral RNA, Mean of Log10 (JNJ-1802 20 mg/kg/d, day 11 p.i., group mean): 2.59 Log10 | In vivo kinetics - viral RNA, Copies/ml [19]: 3.93E+02 Copies/ml | In vivo kinetics - viral RNA, Log10 [19]: 2.5940 Log10 | In vivo kinetics, Mean of Log10 (mouse, in vivo): 2.78 Log10 | In vivo kinetics - viral RNA, Copies/ml (mouse, in vivo, 0.2 mg/kg/day): 7.16E+04 Copies/ml and 1.43E+05 Copies/ml
